In PubChem BioAssay (NCI):
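Cells were grown in 96-well plates and exposed to each compound for 48 hours at five concentrations; endpoints were interpolated linearly between bracketing concentrations, or set to the highest concentration if not reached. TGI marks complete inhibition of growth.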

Tests used:
Experiment in all cases: growth of human tumour cells (NCI), 48 h
[1] = test system: RXF 393 renal
[2] = test system: A549 NSCLC
[3] = test system: SW-620 colon
[4] = test system: SNB-19 CNS
[5] = test system: ACHN renal
[6] = test system: MOLT-4 leukemia
[7] = test system: MCF7 breast
[8] = test system: NCI-H460 lung
[9] = test system: CCRF-CEM leukemia
[10] = test system: U251 CNS
[11] = test system: UACC-257 melanoma
[12] = test system: MDA-N
[13] = test system: DU-145 prostate
[14] = test system: SF-295 CNS
[15] = test system: IGROV1 ovarian
[16] = test system: HCT-116 colon
[17] = test system: HL-60(TB) leukemia
[18] = test system: HCT-15 colon
[19] = test system: MDA-MB-435
[20] = test system: A498 renal
[21] = test system: CAKI-1 renal
[22] = test system: HT29 colon
[23] = test system: UO-31 renal
[24] = test system: PC-3 prostate
[25] = test system: OVCAR-5 ovarian
[26] = test system: SN12C renal
[27] = test system: K-562 leukemia
[28] = test system: KM12 colon
[29] = test system: RPMI-8226 leukemia
[30] = test system: EKVX NSCLC
[31] = test system: SF-268 CNS
[32] = test system: TK-10 renal
[33] = test system: LOX IMVI melanoma
[34] = test system: NCI-H226 lung
[35] = test system: BT-549 breast
[36] = test system: M14 melanoma
[37] = test system: COLO 205 colon
[38] = test system: SK-OV-3 ovarian
[39] = test system: MDA-MB-231 breast
[40] = test system: OVCAR-8 ovarian
[41] = test system: OVCAR-3 ovarian
[42] = test system: SK-MEL-2 melanoma
[43] = test system: NCI-H522 lung
[44] = test system: UACC-62 melanoma
[45] = test system: MALME-3M melanoma
[46] = test system: SR leukemia
[47] = test system: NCI-H23 lung
[48] = test system: SK-MEL-5 melanoma
[49] = test system: NCI/ADR-RES ovarian
[50] = test system: SF-539 CNS
[51] = test system: HOP-92 NSCLC
[52] = test system: HS 578T breast
[53] = test system: HOP-62 NSCLC
[54] = test system: OVCAR-4 ovarian
[55] = test system: HCC-2998 colon
[56] = test system: SK-MEL-28 melanoma
[57] = test system: SNB-75 CNS
[58] = test system: T-47D breast
[59] = test system: 786-0 renal

Compound: Oc1ccc(-c2nc3cc(C(F)(F)F)ccc3s2)cc1
- TGI [1]: 33.2 µM
- TGI [2]: 29.7 µM
- TGI [3]: 40.2 µM
- TGI [4]: 31.4 µM
- TGI [5]: 27.6 µM
- TGI [6]: 87.5 µM
- TGI [7]: 23.3 µM
- TGI [8]: 30.1 µM
- TGI [9]: 27.8 µM
- TGI [10]: 30.5 µM
- TGI [11]: 32.2 µM
- TGI [12]: 32.7 µM
- TGI [13]: 30 µM
- TGI [14]: 28.2 µM
- TGI [15]: 23.8 µM
- TGI [16]: 27.6 µM
- TGI [17]: 40.7 µM
- TGI [18]: 22.1 µM
- TGI [19]: 29.5 µM
- TGI [20]: 32.6 µM
- TGI [21]: 29.1 µM
- TGI [22]: 35.9 µM
- TGI [23]: 26.8 µM
- TGI [24]: 27.9 µM
- TGI [25]: 30.9 µM
- TGI [26]: 32.6 µM
- TGI [27]: > 100 µM
- TGI [28]: 27.8 µM
- TGI [29]: 35.4 µM
- TGI [30]: 16.9 µM
- TGI [31]: 30.8 µM
- TGI [32]: 33.1 µM
- TGI [33]: 26.6 µM
- TGI [34]: 32.6 µM
- TGI [35]: 28.5 µM
- TGI [36]: 29.2 µM
- TGI [37]: 33.1 µM
- TGI [38]: 40.7 µM
- TGI [39]: 31 µM
- TGI [40]: 29.4 µM
- TGI [41]: 28.3 µM
- TGI [42]: 30.1 µM
- TGI [43]: 25.7 µM
- TGI [44]: 27.2 µM
- TGI [45]: 26.6 µM
- TGI [46]: 35.2 µM
- TGI [47]: 30.5 µM
- TGI [48]: 30 µM
- TGI [49]: 35.5 µM
- TGI [50]: 34.2 µM

Compound: COC1(OC)CC(CO)(COc2cc(Cl)nc(N)n2)C1
- TGI [51]: > 100 µM
- TGI [1]: > 100 µM
- TGI [2]: > 100 µM
- TGI [3]: > 100 µM
- TGI [4]: > 100 µM
- TGI [5]: > 100 µM
- TGI [6]: > 100 µM
- TGI [7]: > 100 µM
- TGI [8]: > 100 µM
- TGI [9]: > 100 µM
- TGI [10]: > 100 µM
- TGI [11]: > 100 µM
- TGI [12]: > 100 µM
- TGI [13]: > 100 µM
- TGI [52]: > 100 µM
- TGI [53]: > 100 µM
- TGI [14]: > 100 µM
- TGI [15]: > 100 µM
- TGI [16]: > 100 µM
- TGI [18]: > 100 µM
- TGI [19]: > 100 µM
- TGI [21]: > 100 µM
- TGI [22]: > 100 µM
- TGI [23]: > 100 µM
- TGI [24]: > 100 µM
- TGI [54]: > 100 µM
- TGI [25]: > 100 µM
- TGI [26]: > 100 µM
- TGI [55]: > 100 µM
- TGI [27]: > 100 µM
- TGI [28]: > 100 µM
- TGI [30]: > 100 µM
- TGI [31]: > 100 µM
- TGI [32]: > 100 µM
- TGI [56]: > 100 µM
- TGI [33]: > 100 µM
- TGI [34]: > 100 µM
- TGI [35]: > 100 µM
- TGI [57]: > 100 µM
- TGI [37]: > 100 µM
- TGI [38]: > 100 µM
- TGI [39]: > 100 µM
- TGI [58]: > 100 µM
- TGI [40]: > 100 µM
- TGI [41]: > 100 µM
- TGI [42]: > 100 µM
- TGI [43]: > 100 µM
- TGI [44]: > 100 µM
- TGI [45]: > 100 µM
- TGI [59]: > 100 µM
- TGI [47]: > 100 µM
- TGI [48]: > 100 µM
- TGI [49]: > 100 µM
- TGI [50]: > 100 µM
